How the values were obtained:
JAK1 = JAK1 (Homo sapiens, UniProt P23458); test: JAK kinase activity inhibition, TR-FRET (JAK1); format: biochemical; settings: TR-FRET kinase assay
Method in brief: (§1)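 Enzymatic inhibition measured by time-resolved FRET using 0.1-20 nM kinase with peptide substrate and ATP, reacted 0.5-5 hours at room temperature. Percent inhibition was normalized to DMSO (no inhibitor) and kinase-free wells, and concentration-response data were fitted with a 4-parameter logistic model.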

TYK2 = TYK2 (Homo sapiens, UniProt P29597); test: JAK kinase activity inhibition, TR-FRET (TYK2); format: biochemical; settings: TR-FRET kinase assay
Method in brief: as §1

[1] = tested on: JAK-STAT signal pathway of U266 cells; test: Inhibition of cellular JAK-STAT signal pathway (STAT3 phosphorylation) in U266 cells; format: cell-based, human; settings: Homo sapiens, U-266, INF-a 1000 U/mL stimulation
Method in brief: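 U266 cells (100-300 K/well) preincubated 2 h at room temperature with serially diluted compound, then stimulated 15 min with IFN-α at 1000 U/mL final. After lysis, STAT3 phosphorylation read by LANCE Ultra TR-FRET (Eu antibody 0.5 nM, ULight antibody 5 nM, overnight) at 665 nm; IC50 from 4-parameter fit of inhibition versus DMSO and negative controls.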

[2] = tested on: C57BL/6 mouse colitis model induced by DSS; test: C57BL/6 mouse colitis model induced by DSS, daily disease index; format: in vivo; settings: po, 216 h, 10 mg/kg p.o. BID, Day 0-9, vs vehicle group, read-out: reduction ratio of DAI AUC
Experimental: To evaluate the drug efficacy of the embodiment compound on the C57BL/6 mouse colitis model induced by DSS (dextran sulfate sodium).
According to the weight of the animal, BioBook software was used to randomly group the animals on day −1 to ensure that the weight values of each group of animals were similar to reduce deviation, and the grouping and dosing regimen are shown in the following Table.
Drinking water containing DSS: an appropriate amount of DSS powder was dissolved in the autoclaved drinking water to prepare a 2% DSS solution.
On day −1, the animals were equally divided into 12 groups with 10 animals in each group. (Refer to Table 1 for specific grouping scheme)
From 9:00 on day 0 to 9:00 on day 6, the mice in groups 2 to 9 were given 2% DSS aqueous solution for 6 days (from day 0 to day 6), after which the mice were allowed to freely drink normal water for 3 days (from 9:00 on day 6 to before necropsy on day 9). The day of modeling was counted as day 0. The DSS aqueous solution was wrapped in tin foil to protect it from light. The DSS aqueous solution was replaced every 2 days.
The mice in group 1 are allowed to drink normal water freely for 9 days (from 9:00 on day 0 to before necropsy on day 9).
The recording frequency was once a day, and 4 levels were rated according to the following standards:
Bloody stool (0: negative; 4: positive);
Stool score (0: normal; 2: loose stool; 4: diarrhea)
Daily Disease Index (DAI) was obtained by dividing the sum the scores of the above 3 parts by 3. DAI-time (day) curve based on the daily DAI score was plotted, and the peak area (AUC) under the curve was calculated. The reduction ratio of DAI AUC was calculated by comparing the administration group with the vehicle group, with a calculation formula of (DAI AUCadministration group-DAI AUCvehicle)/DAI AUCVehicle×100%

JAK2 = JAK2 (Homo sapiens, UniProt O60674); test: JAK kinase activity inhibition, TR-FRET (JAK2); format: biochemical; settings: TR-FRET kinase assay
Experimental: (§2) Experimental objective: The objective of this test is to test the inhibitory effect of the compound on JAK kinase activity.
(§3) Experimental method: the fluorescence resonance energy transfer (TR-FRET) method was used to test the inhibitory effect of the compound on JAK kinase activity, and the half inhibitory concentration IC50 of the compound on JAK kinase activity was obtained.
(§4) Kinase reaction was carried out in a white 384-well plate (PerkinElmer). 1-5 μL of different concentrations of the compound diluted with DMSO and ddH2O was added into each well, and 1-5 μL of the corresponding solvent was added to the positive control wells, followed by addition of 0.1-20 nM JAK kinase solution diluted with 1-5 μL of kinase buffer (HEPES 50-250 mM, MgCl2 5-20 mM, etc.) was added to each well. 1-5 μL of kinase buffer was added to the negative control well. 1-5 μL of substrate mixture containing peptide substrate and ATP was added. The plate was incubated at room temperature for 0.5-5 hours. […], EDTA and detection solution containing labeled antibody was added, and then the plate was incubated at room temperature for another 1-24 hours. The fluorescence signal value at about 620 nm and 665 nm of each well was measured by BioTek Synergy H1 plate reader, and the inhibition rate was calculated by the fluorescence signal value. According to the inhibition rate of different concentrations, the IC50 of the compound was obtained by curve fitting.
(§5) The percentage inhibition data of the wells treated with the compound was calculated with the positive control wells (DMSO control wells) and negative control wells (no kinase added) on the plate {% inhibition rate=100-[(test compound value-negative control value)]/(Positive control value-negative control value)×100}. IC50 value was calculated by using GraphPad prism to fit the data of different concentrations and corresponding percentage inhibition rates to a 4-parameter non-linear logic formula.

JAK3 = target: T1, JAK3 (Homo sapiens, UniProt P52333); test: JAK kinase activity inhibition, TR-FRET (JAK3); format: biochemical; settings: TR-FRET kinase assay
T1 sequence (P52333 1-1124): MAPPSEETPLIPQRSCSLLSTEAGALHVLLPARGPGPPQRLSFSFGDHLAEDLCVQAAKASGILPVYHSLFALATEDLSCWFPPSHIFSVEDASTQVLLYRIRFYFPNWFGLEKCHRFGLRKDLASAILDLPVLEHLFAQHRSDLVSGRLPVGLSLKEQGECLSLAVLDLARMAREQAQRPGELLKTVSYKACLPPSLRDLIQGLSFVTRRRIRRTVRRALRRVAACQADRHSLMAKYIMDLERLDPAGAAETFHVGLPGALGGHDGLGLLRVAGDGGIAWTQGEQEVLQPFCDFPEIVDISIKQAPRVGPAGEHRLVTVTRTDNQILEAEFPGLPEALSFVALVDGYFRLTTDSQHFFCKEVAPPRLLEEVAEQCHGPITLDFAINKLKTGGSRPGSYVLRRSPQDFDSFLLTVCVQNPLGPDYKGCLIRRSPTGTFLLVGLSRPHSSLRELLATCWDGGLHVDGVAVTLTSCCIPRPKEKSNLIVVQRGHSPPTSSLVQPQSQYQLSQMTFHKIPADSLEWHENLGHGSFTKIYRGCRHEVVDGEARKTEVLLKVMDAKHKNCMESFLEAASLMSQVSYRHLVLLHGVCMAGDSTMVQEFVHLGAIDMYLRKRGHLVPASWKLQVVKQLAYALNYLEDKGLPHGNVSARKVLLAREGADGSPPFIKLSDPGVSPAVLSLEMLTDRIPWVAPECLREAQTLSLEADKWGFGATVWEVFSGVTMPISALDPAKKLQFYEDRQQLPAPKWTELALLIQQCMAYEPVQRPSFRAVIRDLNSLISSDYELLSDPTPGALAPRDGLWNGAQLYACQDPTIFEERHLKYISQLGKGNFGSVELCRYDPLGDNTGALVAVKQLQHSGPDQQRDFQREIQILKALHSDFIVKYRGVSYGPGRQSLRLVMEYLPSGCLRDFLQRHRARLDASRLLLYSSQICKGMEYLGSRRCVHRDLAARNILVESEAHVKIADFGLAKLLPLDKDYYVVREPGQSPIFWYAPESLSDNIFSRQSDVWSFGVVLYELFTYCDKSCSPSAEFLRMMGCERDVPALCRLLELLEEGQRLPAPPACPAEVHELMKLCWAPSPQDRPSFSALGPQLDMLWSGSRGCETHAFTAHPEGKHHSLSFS
Experimental: as §2, §3, §4, §5

TYK2, sequence (P29597 whole entry): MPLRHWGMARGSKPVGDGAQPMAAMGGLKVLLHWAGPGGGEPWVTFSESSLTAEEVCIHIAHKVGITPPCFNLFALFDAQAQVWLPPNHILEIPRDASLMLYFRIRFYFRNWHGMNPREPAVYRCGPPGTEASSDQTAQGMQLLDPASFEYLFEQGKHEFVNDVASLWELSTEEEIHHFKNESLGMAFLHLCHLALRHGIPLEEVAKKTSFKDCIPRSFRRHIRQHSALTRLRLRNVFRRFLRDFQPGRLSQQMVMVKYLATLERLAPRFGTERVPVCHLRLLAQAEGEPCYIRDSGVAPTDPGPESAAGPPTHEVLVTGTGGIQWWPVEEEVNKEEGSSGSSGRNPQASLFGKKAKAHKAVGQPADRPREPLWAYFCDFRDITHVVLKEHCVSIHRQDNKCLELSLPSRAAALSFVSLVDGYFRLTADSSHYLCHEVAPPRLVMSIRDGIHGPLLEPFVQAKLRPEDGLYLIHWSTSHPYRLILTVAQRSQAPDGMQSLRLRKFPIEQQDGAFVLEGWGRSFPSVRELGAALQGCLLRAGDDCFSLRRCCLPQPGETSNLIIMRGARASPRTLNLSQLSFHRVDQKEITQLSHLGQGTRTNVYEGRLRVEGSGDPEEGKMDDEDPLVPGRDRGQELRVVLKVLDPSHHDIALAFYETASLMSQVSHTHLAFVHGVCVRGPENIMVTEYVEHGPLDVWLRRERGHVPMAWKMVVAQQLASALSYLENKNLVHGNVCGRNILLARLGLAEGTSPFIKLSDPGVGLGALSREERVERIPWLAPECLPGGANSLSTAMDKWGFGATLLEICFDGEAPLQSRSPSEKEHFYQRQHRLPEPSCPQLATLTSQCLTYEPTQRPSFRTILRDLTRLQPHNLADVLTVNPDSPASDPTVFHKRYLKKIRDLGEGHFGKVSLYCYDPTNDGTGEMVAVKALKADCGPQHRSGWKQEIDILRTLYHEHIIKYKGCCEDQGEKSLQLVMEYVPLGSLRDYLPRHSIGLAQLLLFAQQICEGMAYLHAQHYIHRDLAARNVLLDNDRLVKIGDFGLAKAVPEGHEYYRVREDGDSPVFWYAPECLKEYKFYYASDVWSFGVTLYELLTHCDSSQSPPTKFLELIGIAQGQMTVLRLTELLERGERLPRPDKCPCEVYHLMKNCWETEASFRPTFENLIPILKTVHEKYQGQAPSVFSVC
JAK1, sequence (P23458 whole entry): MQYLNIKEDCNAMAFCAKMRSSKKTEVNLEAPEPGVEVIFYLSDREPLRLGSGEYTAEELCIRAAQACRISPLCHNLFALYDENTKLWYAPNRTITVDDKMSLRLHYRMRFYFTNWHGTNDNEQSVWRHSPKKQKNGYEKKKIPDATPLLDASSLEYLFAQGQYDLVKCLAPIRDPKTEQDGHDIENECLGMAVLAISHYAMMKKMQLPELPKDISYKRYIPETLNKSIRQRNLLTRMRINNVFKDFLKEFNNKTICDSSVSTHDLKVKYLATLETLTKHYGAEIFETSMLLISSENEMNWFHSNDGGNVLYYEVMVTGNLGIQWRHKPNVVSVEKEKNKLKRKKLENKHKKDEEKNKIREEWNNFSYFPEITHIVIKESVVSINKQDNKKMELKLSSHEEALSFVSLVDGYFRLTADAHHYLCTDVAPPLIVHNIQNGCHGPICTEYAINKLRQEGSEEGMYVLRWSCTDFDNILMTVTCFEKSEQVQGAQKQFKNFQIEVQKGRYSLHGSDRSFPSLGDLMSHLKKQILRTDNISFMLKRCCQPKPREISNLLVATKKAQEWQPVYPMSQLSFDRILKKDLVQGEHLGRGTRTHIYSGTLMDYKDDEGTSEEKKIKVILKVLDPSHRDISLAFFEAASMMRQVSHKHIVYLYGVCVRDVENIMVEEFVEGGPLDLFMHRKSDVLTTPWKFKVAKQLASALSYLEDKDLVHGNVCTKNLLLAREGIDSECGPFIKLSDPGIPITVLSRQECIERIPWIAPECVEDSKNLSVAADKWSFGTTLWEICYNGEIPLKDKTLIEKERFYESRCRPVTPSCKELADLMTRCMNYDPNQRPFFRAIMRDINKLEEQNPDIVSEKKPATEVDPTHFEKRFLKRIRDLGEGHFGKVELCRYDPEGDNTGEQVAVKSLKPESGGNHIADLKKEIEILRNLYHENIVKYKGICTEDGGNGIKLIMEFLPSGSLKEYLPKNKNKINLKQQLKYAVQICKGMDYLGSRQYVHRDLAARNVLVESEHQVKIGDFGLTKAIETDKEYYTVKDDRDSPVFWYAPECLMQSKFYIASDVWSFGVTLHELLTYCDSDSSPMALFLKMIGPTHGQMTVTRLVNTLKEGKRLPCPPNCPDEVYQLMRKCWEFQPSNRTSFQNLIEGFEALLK
JAK2, sequence (O60674 whole entry): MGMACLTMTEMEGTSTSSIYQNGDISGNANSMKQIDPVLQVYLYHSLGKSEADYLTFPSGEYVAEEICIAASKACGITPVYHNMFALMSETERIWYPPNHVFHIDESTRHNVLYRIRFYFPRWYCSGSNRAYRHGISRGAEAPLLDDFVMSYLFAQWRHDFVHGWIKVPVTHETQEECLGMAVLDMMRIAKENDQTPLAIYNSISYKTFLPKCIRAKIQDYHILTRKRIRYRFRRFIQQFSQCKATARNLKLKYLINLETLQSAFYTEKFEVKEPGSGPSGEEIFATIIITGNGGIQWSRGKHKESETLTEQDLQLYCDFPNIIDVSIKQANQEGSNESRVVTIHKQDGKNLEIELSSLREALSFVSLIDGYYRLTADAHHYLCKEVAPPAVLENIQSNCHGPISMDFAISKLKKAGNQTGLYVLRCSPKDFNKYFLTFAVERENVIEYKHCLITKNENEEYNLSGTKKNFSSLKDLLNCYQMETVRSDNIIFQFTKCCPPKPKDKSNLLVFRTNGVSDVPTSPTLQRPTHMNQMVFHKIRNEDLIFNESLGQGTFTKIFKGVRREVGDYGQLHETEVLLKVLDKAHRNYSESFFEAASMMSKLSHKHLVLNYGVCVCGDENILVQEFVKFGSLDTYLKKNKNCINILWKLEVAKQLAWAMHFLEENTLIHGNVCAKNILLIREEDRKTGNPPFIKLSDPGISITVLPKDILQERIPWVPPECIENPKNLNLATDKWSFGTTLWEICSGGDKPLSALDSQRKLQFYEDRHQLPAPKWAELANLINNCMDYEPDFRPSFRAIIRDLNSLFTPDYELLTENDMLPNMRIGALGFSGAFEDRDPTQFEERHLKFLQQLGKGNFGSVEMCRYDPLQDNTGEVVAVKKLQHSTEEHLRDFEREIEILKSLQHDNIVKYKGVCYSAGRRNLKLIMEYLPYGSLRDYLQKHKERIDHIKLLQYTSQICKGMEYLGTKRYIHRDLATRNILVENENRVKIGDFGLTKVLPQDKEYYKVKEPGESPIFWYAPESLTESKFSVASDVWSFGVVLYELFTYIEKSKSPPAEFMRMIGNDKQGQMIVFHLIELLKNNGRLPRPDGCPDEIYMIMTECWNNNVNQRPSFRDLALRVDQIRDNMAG

SMILES | IC50 (JAK1) [nM] | IC50 (TYK2) [nM] | IC50 [1] [nM] | change in vivo at 10 mg/kg [2] [%] | IC50 (JAK2) [nM] | IC50 (JAK3) [nM]
Cc1cc(Nc2nc(N[C@@H]3C[C@H]4CC[C@@H](C3)N4CCC#N)nc3sccc23)n[nH]1 [Embodiment 62, 3-((3-exo)-3-((4-((5-methyl-1H-pyrazol-3-yl)amino)thieno[2,3-d]pyrimidin-2-yl)amino)-8-azabicyclo[3.2.1]oct-8-yl)propionitrile] | 0.08 | 0.17 | 1.9 | -32.2 |  | 
Cc1cc(Nc2nc(N[C@@H]3C[C@H]4CC[C@@H](C3)N4CCC#N)nc3[nH]ccc23)n[nH]1 [Embodiment 3, 3-((3-exo)-3-((4-((5-methyl-1H-pyrazol-3-yl)amino)-7H-pyrrolo[2,3-d]pyrimidin-2-yl)amino)-8-azabicyclo[3.2.1]oct-8-yl)propionitrile] | 0.11 | 0.17 | 4.5 |  | 0.29 | 0.81
Cc1cc(Nc2nc(N[C@@H]3C[C@H]4CC[C@@H](C3)N4S(=O)(=O)c3cccnc3)nc3sccc23)n[nH]1 [Embodiment 265, N^4-(5-methyl-1H-pyrazol-3-yl)-N^2-((3-exo)-8(pyridin-3ylsulfonyl)-8-azabicyclo[3.2.1]oct-3-yl)thieno[2,3-d]pyrimidin-2,4-diamine] | 1.29 | 1 | 20.4 |  | 1.81 | 170
